Assay results from ChEMBL document CHEMBL5608223, “Chemical Probes to Investigate Central Nervous System Disorders: Design, Synthesis and Mechanism of Action of a Potent Human Serine Racemase Inhibitor” (ACS Med Chem Lett, 2024).
Active and inactive are the calls of the source. No cut-off for these calls is given here.

Experiments:
Serine racemase [1] = biological target: T1, Serine racemase (Mus musculus, UniProt Q9QZX7); test: Inhibition of mouse SR using L-Serine as substrate incubated for 2 hrs in presence of PLP by spectrophotometer assay
T1 sequence (Q9QZX7 whole entry): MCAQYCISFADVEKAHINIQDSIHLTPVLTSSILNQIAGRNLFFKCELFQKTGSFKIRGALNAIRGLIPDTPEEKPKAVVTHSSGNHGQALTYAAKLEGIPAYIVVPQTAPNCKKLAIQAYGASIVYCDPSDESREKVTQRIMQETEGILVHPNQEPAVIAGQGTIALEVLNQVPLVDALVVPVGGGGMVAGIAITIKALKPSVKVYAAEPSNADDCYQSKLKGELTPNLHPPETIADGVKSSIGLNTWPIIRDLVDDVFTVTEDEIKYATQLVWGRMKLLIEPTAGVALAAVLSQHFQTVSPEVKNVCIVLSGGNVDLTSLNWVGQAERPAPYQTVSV

[2] = biological target: T2, Phosphoserine aminotransferase (Homo sapiens, UniProt Q9Y617); test: Inhibition of human PSAT extracted from Escherichia coli BL21(DE3) cells preincubated with compound followed by L-OPS addition in presence of PLP
T2 sequence (Q9Y617 whole entry): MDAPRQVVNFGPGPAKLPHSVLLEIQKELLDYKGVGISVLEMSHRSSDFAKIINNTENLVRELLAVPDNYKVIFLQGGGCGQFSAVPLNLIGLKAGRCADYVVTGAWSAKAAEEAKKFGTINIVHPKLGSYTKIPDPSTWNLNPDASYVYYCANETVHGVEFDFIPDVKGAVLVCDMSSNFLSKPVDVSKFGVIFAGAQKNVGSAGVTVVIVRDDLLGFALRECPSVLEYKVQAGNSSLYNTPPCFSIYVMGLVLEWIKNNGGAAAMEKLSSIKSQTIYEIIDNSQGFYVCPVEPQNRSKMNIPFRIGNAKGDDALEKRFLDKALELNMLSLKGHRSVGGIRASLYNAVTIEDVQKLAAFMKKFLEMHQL

[3] = biological target: T3, Serine racemase (Homo sapiens) (UniProt Q9GZT4); test: Inhibition of recombinant hexa-His tagged human SR extracted from Escherichia coli BL21 CodonPlusR (DE3)-RIL cells at 2 mM preincubated with compound followed by L-serine addition and measured after 10 mins
T3 sequence (whole entry): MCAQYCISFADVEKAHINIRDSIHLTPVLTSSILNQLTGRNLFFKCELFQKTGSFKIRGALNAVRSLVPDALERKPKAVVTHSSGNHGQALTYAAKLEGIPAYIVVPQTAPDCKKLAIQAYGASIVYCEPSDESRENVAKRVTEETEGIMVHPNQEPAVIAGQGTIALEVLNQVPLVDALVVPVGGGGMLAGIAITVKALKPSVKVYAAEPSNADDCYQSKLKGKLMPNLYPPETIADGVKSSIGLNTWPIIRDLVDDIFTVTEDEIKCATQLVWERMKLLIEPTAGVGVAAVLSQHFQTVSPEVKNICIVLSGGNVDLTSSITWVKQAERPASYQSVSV

Serine racemase [4] = biological target: T4, Serine racemase (Homo sapiens, UniProt Q9GZT4); test: Inhibition of human SR extracted from Escherichia coli assessed as beta-eliminase activity using L-Ser as substrate by spectrophotometer assay
T4 sequence (Q9GZT4 whole entry): T3 sequence (whole entry)

N[C@H]1CONC1=O [LEVCYCLOSERINE]
IC50 (Serine racemase [1]): 2.27 mM

NOC(Cc1ccc(-c2ccccc2)cc1)C(=O)O (stereo not given)
IC50 [2]: 2200 nM

N[C@@H](Cc1ccccc1)C(=O)O
Activity [3]: inactive

O=C(O)CC(=O)O [MALONIC ACID]
IC50 (Serine racemase [4]): 0.071 mM

O=C(O)[C@H]1C[C@H]1C(=O)O
IC50 (Serine racemase [4]): 3 mM
